Reference: patent publication US20260355177A1, “TREATMENT FOR APLASTIC ANEMIA (AA)” (ZYDUS LIFESCIENCES LIMITED, priority 2022, published 2026)

Assays:
[1] = system: busulphan-induced aplastic anemia in Balb/c mice; assay: Busulphan-induced aplastic anemia in Balb/c mice: white blood cell (WBC) and platelet count; format: in vivo; conditions: after 44 days of treatment; Formula (Ia) 15 mg/kg PO daily; Romiplostim 50 μg/kg SC once a week; mean±SEM, n=6
Description: Aplastic anemia (AA) was induced in BALB/c mice by administration of busulphan (BU). BU was dissolved in acetone at concentrations of 5-10 mg/mL. Immediately before administration, deionized water was added to the BU-acetone solution and the solution was given by intraperitoneal (ip) injection at dose of 9 mg/kg. Control mice were given vehicle at the same dose volume.^9 Compound of formula (Ia) (15 mg/kg, PO, daily) and Romiplostim (50 μg/kg, SC, once a week) combination were administered.
Mice were be dosed with vehicle or BU on 10 occasions over a period of 21 days (days 1, 3, 6, 8, 10, 13, 15, 17, 19 and 21). Between 1 to 127 days after the final BU dose, mice from each group were autopsied for blood.^9
The changes in the white blood cell (WBC) and platelet count were measured after 44 days of treatment. Data are mean±SEM (n=6 for each group).

[2] = system: cyclophosphamide-induced aplastic anemia in C57 mice; assay: Cyclophosphamide-induced aplastic anemia in C57 mice: white blood cell (WBC) and platelet count; format: in vivo; conditions: after 11 days of treatment; Formula (Ia) 15 mg/kg PO daily; Romiplostim 30 μg/kg SC once a week; mean±SEM, n=6
Description: Aplastic anemia (AA) was induced in C57 mice by administration of cyclophosphamide. Cyclophosphamide was dissolved in deionized water at concentrations of 20 mg/mL. Immediately before administration, deionized water was added to the stock solution and the solution was given by intraperitoneal (ip) injection at dose of 100 mg/kg. Mice were dosed with vehicle or cyclophosphamide for 4 days. Control mice were given vehicle at the same dose volume.^10 Compound of formula (Ia) (15 mg/kg, PO, daily) and Romiplostim (30 μg/kg, SC, once a week) combination were administered.
Blood was collected from each group after 11 days of treatment. The changes in the white blood cell (WBC) and platelet count were measured. Data are mean±SEM (n=6 for each group).

Compound	Platelets [1]	Platelets % Change against vehicle control [1]	WBC [1]	WBC % Change against vehicle control [1]	Platelets [2]	Platelets % Change against vehicle control [2]	WBC [2]	WBC % Change against vehicle control [2]
Romiplostim	1257.0 10^3/uL	142.7%	4.2 10^3/uL	79.3%				
O=C(O)CNC(=O)c1c(O)c2ccccc2n(OCC2CC2)c1=O [Formula (Ia)]	676.2 10^3/uL	30.6%	2.6 10^3/uL	10.9%	742.3 10^3/uL	32.1%	7.0 10^3/uL	10.1%
